Measured values as given in patent US20030158267A1, “Method and compositions for inhibiting the scent tracking ability of biting midges” (priority 2002, published 2003).

System: biting midges (Culicoides furens)
Experiment: Competitive field test: biting midges attracted to, killed by and collected in a CO2/octenol-baited heated electrical grid device, with or without test compound emitted
Assay type: in vivo
Details: for Midges collected: linalool 1 mg/hr; for Reduction of average biting midge kill counts: over three trials, linalool 1 mg/hr vs no linalool
Description: A device comprising a cylindrical housing essentially shaped like an opened one-gallon paint can, was equipped to release determinable amounts of one or more of CO2, octenol and test compound of this invention. The device housing was equipped (covered) at it its open end with an electrical grid operating at a temperature of approximately 110° F. (44° C.) for killing any midges attracted to the grid and thereby collecting the killed midges in the housing. With the device in operation, biting midges would be attracted by the scent of CO2 and/or octenol eminating from the interior of the housing and from the heat of the electrical grid. Then, with the additional introduction of test compound from the housing it was possible to determine the inhibiting effect of the test compound by determining the decrease in biting midges attracted and killed by the teat device. The test was conducted in a designated test area known for its abundance of biting midges along the Indian River in Vero Beach, Fla. at the U.S. Department of Agriculture test facility. Competitive tests were conducted over a twelve day period in September.. During Days 1 to 3 and 7 to 9 the test conditions of the test device were set to mimic a bird as the target, namely the device emitted 50 cc/min CO2 and no octenol, and during Days 4 to 6 and 10 to 12 the test conditions were set to mimic a mammal as the target, namely the device emitted 50 cc/min CO2 and 7 mg/hr octenol. In these competitive tests, the inhibiting compound was either not emitted (Days 1 to 6) or emitted (Days 7 to 12). The test then determined the number of midges killed and collected in the device without the test compound present, and the number of midges killed and collected in the device with the test compound present in order to determine the ability of the test compound to inibit the ability of the biting midges (Culicoides furens) to sense the […] target.

## C=CC(C)(O)CCC=C(C)C (centres unmarked) [Linalool, linalool]
Day 7, device mimicking a bird: CO2 50 cc/min, octenol 0 mg/hr
  Midges collected: 13
Day 8, device mimicking a bird: CO2 50 cc/min, octenol 0 mg/hr
  Midges collected: 5
Day 9, device mimicking a bird: CO2 50 cc/min, octenol 0 mg/hr
  Midges collected: 14
Day 10, device mimicking a mammal: CO2 50 cc/min, octenol 7 mg/hr
  Midges collected: 29
Day 11, device mimicking a mammal: CO2 50 cc/min, octenol 7 mg/hr
  Midges collected: 81
Day 12, device mimicking a mammal: CO2 50 cc/min, octenol 7 mg/hr
  Midges collected: 364
Days 7-9 total, bird mimic: CO2 50 cc/min, no octenol, linalool 1 mg/hr (without linalool, days 1-3: total 176)
  Midges collected, total: Total 32
Days 10-12 average per day, mammal mimic: CO2 50 cc/min, octenol 7 mg/hr, linalool 1 mg/hr (without linalool: 1137)
  Midges collected, Avg./day: Avg./day 158
Days 10-12 total, mammal mimic: CO2 50 cc/min, octenol 7 mg/hr, linalool 1 mg/hr (without linalool, days 4-6: total 3410)
  Midges collected, total: Total 474
Device mimicking a bird (CO2 50 cc/min, no octenol)
  Reduction of average biting midge kill counts: 81%
Device mimicking a mammal (CO2 50 cc/min, octenol 7 mg/hr)
  Reduction of average biting midge kill counts: 86%
